Experiments:
Assay in all cases: radiometric filter-binding kinase assay, Kinase HotSpot
Settings in all cases: compound 0.5 µM; ATP 10 µM
CDK5 CDK5R1 p35 (human) = CDK5 CDK5R1 p35 (human) (UniProt Q00535+Q15078)
HCK (human) = HCK (human) (UniProt P08631)
FGR (human) = FGR (human) (UniProt P09769)
EPHB1 (human) = EPHB1 (human) (UniProt P54762)
EPHA6 (human) = EPHA6 (human) (UniProt Q9UF33)
INSR (human) = INSR (human) (UniProt P06213)
MAP3K10 (human) = MAP3K10 (human) (UniProt Q02779)
MARK3 (human) = MARK3 (human) (UniProt P27448)
TGFBR1 (human) = TGFBR1 (human) (UniProt P36897)
PRKCG (human) = PRKCG (human) (UniProt P05129)
FER (human) = FER (human) (UniProt P16591)
MARK4 (human) = MARK4 (human) (UniProt Q96L34)
MAP2K2 (human) = MAP2K2 (human) (UniProt P36507)
MINK1 (human) = MINK1 (human) (UniProt Q8N4C8)
MYLK2 (human) = MYLK2 (human) (UniProt Q9H1R3)
IKBKB (human) = IKBKB (human) (UniProt O14920)
BRSK2 (human) = BRSK2 (human) (UniProt Q8IWQ3)
PRKCD (human) = PRKCD (human) (UniProt Q05655)
CDC42BPA (human) = CDC42BPA (human) (UniProt Q5VT25)
ABL2 (human) = ABL2 (human) (UniProt P42684)
CDK9 CCNK (human) = CDK9 CCNK (human) (UniProt O75909+P50750)
CSK (human) = CSK (human) (UniProt P41240)
ULK1 (human) = ULK1 (human) (UniProt O75385)
EPHA8 (human) = EPHA8 (human) (UniProt P29322)
PRKCH (human) = PRKCH (human) (UniProt P24723)
ACVR1 (human) = ACVR1 (human) (UniProt Q04771)
RPS6KB2 (human) = RPS6KB2 (human) (UniProt Q9UBS0)
NEK11 (human) = NEK11 (human) (UniProt Q8NG66)
DSTYK (human) = DSTYK (human) (UniProt Q6XUX3)
TYRO3 (human) = TYRO3 (human) (UniProt Q06418)
TAOK2 (human) = TAOK2 (human) (UniProt Q9UL54)
MERTK (human) = MERTK (human) (UniProt Q12866)
PIM3 (human) = PIM3 (human) (UniProt Q86V86)
MAPK13 (human) = MAPK13 (human) (UniProt O15264)
DYRK2 (human) = DYRK2 (human) (UniProt Q92630)
NUAK2 (human) = NUAK2 (human) (UniProt Q9H093)
CSNK1D (human) = CSNK1D (human) (UniProt P48730)
PAK7 (human) = PAK7 (human) (UniProt Q9P286)
MATK (human) = MATK (human) (UniProt P42679)
STK11 (human) = STK11 (human) (UniProt Q15831)
EPHB4 (human) = EPHB4 (human) (UniProt P54760)
HIPK2 (human) = HIPK2 (human) (UniProt Q9H2X6)

Chain of HCK (human) (P08631 whole entry, looked up): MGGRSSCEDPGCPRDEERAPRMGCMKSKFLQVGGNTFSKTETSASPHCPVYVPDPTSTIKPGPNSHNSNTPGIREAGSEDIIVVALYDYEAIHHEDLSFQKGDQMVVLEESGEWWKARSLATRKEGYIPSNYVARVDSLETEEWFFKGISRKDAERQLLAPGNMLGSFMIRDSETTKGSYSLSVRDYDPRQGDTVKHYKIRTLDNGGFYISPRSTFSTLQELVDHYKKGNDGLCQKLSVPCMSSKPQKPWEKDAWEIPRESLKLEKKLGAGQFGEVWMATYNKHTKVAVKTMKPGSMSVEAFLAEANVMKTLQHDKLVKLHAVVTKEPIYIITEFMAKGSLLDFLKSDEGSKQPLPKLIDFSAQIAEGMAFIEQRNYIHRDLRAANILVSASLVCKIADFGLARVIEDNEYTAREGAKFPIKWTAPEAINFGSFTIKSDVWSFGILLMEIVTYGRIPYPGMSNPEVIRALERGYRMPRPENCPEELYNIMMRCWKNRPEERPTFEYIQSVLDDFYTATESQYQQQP
Chain of MARK4 (human) (Q96L34 whole entry, looked up): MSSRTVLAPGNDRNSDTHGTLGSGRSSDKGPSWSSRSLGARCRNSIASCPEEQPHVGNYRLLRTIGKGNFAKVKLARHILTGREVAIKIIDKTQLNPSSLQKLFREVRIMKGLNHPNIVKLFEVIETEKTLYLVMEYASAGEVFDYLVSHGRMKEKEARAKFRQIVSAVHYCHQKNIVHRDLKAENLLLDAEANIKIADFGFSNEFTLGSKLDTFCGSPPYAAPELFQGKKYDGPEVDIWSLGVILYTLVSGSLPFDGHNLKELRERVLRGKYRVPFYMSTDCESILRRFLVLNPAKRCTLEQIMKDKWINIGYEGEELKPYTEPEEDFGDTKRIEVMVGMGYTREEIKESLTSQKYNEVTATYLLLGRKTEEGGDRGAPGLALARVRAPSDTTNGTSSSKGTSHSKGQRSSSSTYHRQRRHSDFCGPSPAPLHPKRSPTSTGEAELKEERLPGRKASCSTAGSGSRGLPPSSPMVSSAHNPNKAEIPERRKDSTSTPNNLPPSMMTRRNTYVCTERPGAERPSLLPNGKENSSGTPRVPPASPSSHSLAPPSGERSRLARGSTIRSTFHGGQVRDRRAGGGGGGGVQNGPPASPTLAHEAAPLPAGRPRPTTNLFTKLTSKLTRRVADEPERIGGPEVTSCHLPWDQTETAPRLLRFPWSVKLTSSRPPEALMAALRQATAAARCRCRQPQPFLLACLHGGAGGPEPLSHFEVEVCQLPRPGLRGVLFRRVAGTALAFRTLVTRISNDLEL
Chain of TGFBR1 (human) (P36897 whole entry, looked up): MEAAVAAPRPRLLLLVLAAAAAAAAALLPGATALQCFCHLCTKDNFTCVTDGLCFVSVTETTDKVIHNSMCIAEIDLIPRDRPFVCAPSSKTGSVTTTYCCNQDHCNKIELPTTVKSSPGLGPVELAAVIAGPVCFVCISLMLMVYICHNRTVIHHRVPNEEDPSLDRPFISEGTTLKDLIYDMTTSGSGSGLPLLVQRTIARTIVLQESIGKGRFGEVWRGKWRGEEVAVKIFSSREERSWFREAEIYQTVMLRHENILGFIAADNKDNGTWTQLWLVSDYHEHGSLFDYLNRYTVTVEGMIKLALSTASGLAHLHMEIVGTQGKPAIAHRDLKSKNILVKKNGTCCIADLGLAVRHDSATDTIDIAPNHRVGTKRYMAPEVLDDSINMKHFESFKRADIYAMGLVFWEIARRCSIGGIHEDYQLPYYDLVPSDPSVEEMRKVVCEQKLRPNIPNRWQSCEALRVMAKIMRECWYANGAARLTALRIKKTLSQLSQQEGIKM
Chain of CSK (human) (P41240 whole entry, looked up): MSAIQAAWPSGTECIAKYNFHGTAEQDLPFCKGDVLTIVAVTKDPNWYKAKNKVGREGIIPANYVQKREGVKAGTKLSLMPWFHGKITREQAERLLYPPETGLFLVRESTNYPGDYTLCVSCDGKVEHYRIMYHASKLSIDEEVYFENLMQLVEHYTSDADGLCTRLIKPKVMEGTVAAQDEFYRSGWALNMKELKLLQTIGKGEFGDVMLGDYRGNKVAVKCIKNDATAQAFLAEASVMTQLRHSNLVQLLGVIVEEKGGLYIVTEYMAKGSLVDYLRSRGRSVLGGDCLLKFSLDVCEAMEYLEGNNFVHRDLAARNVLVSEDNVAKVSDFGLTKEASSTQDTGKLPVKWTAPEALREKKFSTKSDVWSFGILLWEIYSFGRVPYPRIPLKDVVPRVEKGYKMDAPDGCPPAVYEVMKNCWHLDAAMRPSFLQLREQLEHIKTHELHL
Chain of EPHB1 (human) (P54762 whole entry, looked up): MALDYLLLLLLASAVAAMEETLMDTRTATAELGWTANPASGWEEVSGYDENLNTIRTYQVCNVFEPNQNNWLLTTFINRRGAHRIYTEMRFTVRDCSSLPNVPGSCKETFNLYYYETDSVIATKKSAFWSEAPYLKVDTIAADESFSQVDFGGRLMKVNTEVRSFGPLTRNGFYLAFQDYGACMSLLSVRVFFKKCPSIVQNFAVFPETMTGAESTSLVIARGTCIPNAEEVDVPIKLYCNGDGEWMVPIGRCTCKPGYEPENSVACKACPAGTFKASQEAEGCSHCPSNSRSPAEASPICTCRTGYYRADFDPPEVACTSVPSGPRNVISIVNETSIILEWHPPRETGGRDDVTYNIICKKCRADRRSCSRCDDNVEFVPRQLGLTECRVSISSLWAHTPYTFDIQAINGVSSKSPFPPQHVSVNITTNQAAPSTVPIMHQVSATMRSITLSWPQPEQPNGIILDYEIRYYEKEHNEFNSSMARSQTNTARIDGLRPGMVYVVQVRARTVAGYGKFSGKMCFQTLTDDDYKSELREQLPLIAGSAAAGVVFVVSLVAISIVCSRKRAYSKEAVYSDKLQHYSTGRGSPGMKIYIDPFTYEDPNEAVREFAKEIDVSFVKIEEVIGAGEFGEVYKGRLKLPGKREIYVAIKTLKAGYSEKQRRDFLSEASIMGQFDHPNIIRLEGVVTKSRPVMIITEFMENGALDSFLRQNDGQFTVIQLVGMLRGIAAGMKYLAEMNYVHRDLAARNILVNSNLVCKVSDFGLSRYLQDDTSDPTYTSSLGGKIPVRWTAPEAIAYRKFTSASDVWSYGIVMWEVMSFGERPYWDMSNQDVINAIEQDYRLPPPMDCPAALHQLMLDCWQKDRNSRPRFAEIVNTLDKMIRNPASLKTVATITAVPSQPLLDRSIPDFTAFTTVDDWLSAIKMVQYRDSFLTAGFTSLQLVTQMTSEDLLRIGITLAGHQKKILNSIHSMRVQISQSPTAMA
Chain of ABL2 (human) (P42684 whole entry, looked up): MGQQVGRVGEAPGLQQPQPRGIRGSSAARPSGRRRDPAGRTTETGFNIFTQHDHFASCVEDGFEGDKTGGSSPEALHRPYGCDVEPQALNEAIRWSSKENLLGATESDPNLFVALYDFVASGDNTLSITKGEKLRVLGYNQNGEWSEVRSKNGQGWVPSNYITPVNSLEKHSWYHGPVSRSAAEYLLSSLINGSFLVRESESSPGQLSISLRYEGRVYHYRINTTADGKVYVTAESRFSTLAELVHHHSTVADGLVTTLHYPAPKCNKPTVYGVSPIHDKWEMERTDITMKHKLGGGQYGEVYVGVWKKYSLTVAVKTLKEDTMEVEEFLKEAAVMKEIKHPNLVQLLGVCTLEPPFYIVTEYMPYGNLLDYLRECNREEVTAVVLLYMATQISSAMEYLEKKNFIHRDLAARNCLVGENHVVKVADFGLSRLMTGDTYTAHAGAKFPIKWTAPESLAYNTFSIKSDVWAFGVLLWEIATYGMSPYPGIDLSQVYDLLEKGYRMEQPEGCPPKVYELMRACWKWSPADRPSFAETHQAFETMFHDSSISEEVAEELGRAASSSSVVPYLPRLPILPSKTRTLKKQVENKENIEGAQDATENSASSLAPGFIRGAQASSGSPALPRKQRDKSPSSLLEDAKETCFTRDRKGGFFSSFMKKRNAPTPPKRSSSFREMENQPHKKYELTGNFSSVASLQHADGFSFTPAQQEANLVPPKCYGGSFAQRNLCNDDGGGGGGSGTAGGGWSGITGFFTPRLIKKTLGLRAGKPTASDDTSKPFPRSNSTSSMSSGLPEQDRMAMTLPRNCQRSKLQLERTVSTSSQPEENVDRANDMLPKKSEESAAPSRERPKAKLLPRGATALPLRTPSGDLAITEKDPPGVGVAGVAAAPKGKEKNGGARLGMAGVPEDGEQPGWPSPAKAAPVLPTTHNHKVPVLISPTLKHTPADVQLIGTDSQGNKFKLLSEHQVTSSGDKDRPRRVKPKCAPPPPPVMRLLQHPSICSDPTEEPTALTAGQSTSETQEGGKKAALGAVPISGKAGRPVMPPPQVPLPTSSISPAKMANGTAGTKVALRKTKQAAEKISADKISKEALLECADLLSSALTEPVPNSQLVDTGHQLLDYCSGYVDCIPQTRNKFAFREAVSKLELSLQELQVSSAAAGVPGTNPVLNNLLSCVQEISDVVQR
Chain of MAP2K2 (human) (P36507 whole entry, looked up): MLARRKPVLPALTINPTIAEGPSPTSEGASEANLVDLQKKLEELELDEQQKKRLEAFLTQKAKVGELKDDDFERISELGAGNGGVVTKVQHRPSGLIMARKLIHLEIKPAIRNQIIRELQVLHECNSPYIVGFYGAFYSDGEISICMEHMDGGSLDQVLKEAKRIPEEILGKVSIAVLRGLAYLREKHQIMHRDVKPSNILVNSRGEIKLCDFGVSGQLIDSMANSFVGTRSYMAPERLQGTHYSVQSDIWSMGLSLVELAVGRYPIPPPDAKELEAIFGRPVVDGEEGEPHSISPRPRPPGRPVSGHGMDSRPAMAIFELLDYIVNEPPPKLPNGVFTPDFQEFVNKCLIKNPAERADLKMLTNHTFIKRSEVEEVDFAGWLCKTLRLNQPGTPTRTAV

Q: Which results are given for `CNC(=O)c1cc(Oc2ccc(NC(=O)Nc3ccc(Cl)c(C(F)(F)F)c3)cc2)ccn1`?
A: residual activity (CDK5 CDK5R1 p35 (human)): 99.9%; residual activity (HCK (human)): 90.3%; residual activity (FGR (human)): 88.7%; residual activity (EPHB1 (human)): 102%; residual activity (EPHA6 (human)): 42%; residual activity (INSR (human)): 106%; residual activity (MAP3K10 (human)): 104%; residual activity (MARK3 (human)): 103%; residual activity (TGFBR1 (human)): 94.1%; residual activity (PRKCG (human)): 94.7%; residual activity (FER (human)): 101%; residual activity (MARK4 (human)): 98.1%; residual activity (MAP2K2 (human)): 89.7%; residual activity (MINK1 (human)): 108%; residual activity (MYLK2 (human)): 96.1%; residual activity (IKBKB (human)): 88.3%; residual activity (BRSK2 (human)): 103%; residual activity (PRKCD (human)): 104%; residual activity (CDC42BPA (human)): 85.2%; residual activity (ABL2 (human)): 99.4%; residual activity (CDK9 CCNK (human)): 101%; residual activity (CSK (human)): 90.3%; residual activity (ULK1 (human)): 94.3%; residual activity (EPHA8 (human)): 94.5%; residual activity (PRKCH (human)): 107%; residual activity (ACVR1 (human)): 98.7%; residual activity (RPS6KB2 (human)): 103%; residual activity (NEK11 (human)): 105%; residual activity (DSTYK (human)): 97.7%; residual activity (TYRO3 (human)): 91.7%; residual activity (TAOK2 (human)): 36.9%; residual activity (MERTK (human)): 88.2%; residual activity (PIM3 (human)): 100%; residual activity (MAPK13 (human)): 97.5%; residual activity (DYRK2 (human)): 98.9%; residual activity (NUAK2 (human)): 101%; residual activity (CSNK1D (human)): 103%; residual activity (PAK7 (human)): 95.9%; residual activity (MATK (human)): 114%; residual activity (STK11 (human)): 104%

Q: What does the source list for `CCOC(=O)c1c(C)[nH]c(/C=C2\C(=O)Nc3ccccc32)c1C`?
A: residual activity (CDK5 CDK5R1 p35 (human)): 96.7%; residual activity (HCK (human)): 92.6%; residual activity (FGR (human)): 79.3%; residual activity (EPHB1 (human)): 97.5%; residual activity (EPHA6 (human)): 80%; residual activity (INSR (human)): 90.6%; residual activity (MAP3K10 (human)): 98.5%; residual activity (MARK3 (human)): 99.8%; residual activity (TGFBR1 (human)): 99.7%; residual activity (PRKCG (human)): 91.9%; residual activity (FER (human)): 72.5%; residual activity (MARK4 (human)): 99.6%; residual activity (MAP2K2 (human)): 102%; residual activity (MINK1 (human)): 88.9%; residual activity (MYLK2 (human)): 74.7%; residual activity (IKBKB (human)): 101%; residual activity (BRSK2 (human)): 98.7%; residual activity (PRKCD (human)): 91.6%; residual activity (CDC42BPA (human)): 85.7%; residual activity (ABL2 (human)): 88.5%; residual activity (CDK9 CCNK (human)): 97.5%; residual activity (CSK (human)): 104%; residual activity (ULK1 (human)): 80.1%; residual activity (EPHA8 (human)): 88.7%; residual activity (PRKCH (human)): 94%; residual activity (ACVR1 (human)): 99.8%; residual activity (EPHB4 (human)): 89.5%; residual activity (RPS6KB2 (human)): 103%; residual activity (NEK11 (human)): 96.6%; residual activity (DSTYK (human)): 90.8%; residual activity (TYRO3 (human)): 96.9%; residual activity (TAOK2 (human)): 105%; residual activity (MERTK (human)): 69.3%; residual activity (PIM3 (human)): 75.1%; residual activity (MAPK13 (human)): 98.3%; residual activity (DYRK2 (human)): 92.4%; residual activity (NUAK2 (human)): 128%; residual activity (CSNK1D (human)): 96.4%; residual activity (PAK7 (human)): 83.9%; residual activity (MATK (human)): 101%; residual activity (STK11 (human)): 85.2%

Q: What does the source list for `CC[n+]1c(/C=C/N(C)c2ccccc2)n(-c2ccccc2)c2ccc(-c3nc4ccccc4s3)cc21`?
A: residual activity (CDK5 CDK5R1 p35 (human)): 97.6%; residual activity (HCK (human)): 104%; residual activity (FGR (human)): 94.1%; residual activity (EPHB1 (human)): 104%; residual activity (HIPK2 (human)): 103%; residual activity (INSR (human)): 94%; residual activity (MAP3K10 (human)): 103%; residual activity (MARK3 (human)): 98.8%; residual activity (TGFBR1 (human)): 102%; residual activity (PRKCG (human)): 99.4%; residual activity (FER (human)): 98.9%; residual activity (MARK4 (human)): 110%; residual activity (MAP2K2 (human)): 88.5%; residual activity (MINK1 (human)): 99%; residual activity (MYLK2 (human)): 95.8%; residual activity (IKBKB (human)): 98.6%; residual activity (BRSK2 (human)): 95.7%; residual activity (PRKCD (human)): 93.3%; residual activity (CDC42BPA (human)): 102%; residual activity (ABL2 (human)): 95.7%; residual activity (CDK9 CCNK (human)): 106%; residual activity (CSK (human)): 100%; residual activity (ULK1 (human)): 90.9%; residual activity (EPHA8 (human)): 96.3%; residual activity (PRKCH (human)): 101%; residual activity (ACVR1 (human)): 103%; residual activity (EPHB4 (human)): 103%; residual activity (RPS6KB2 (human)): 93.2%; residual activity (NEK11 (human)): 91.6%; residual activity (DSTYK (human)): 103%; residual activity (TYRO3 (human)): 103%; residual activity (TAOK2 (human)): 97.7%; residual activity (MERTK (human)): 96.5%; residual activity (PIM3 (human)): 98.8%; residual activity (MAPK13 (human)): 102%; residual activity (DYRK2 (human)): 105%; residual activity (NUAK2 (human)): 93.3%; residual activity (CSNK1D (human)): 104%; residual activity (PAK7 (human)): 98.6%; residual activity (MATK (human)): 96.4%; residual activity (STK11 (human)): 93.1%
